Data as given in patent publication US9771343B2, “2-alkyl-or-aryl-substituted tanshinone derivatives, and preparation method and application thereof” (Hangzhou Bensheng Pharmaceutical Co., Ltd., priority 2011, dated 2017).
In brackets after ≈: the same amount, converted by molar mass.

Columns and labels:
[1] = system: K562/adr (drug-resistant, chronic myeloid leukemia, CML); test: MTT cell growth inhibition, K562/adr leukemia cells, 72 h; format: cell-based; conditions: Homo sapiens, K562/Adr; for IC50: read-out: IC50; for IC90: read-out: IC90
Protocol: (§1) The standard sample of tanshinone I (TA) and the 2-alkyl- or 2-aromatic-substituted tanshinone I derivatives of the present invention are sufficiently dissolved in dimethylsulfoxide to produce a stock solution of 10 mg/mL, which is refrigerated at 4° C. and stored in dark, and is diluted with cell culture medium to a desired concentration prior to experimentation.
(§2) Obtaining 6000 well-growing leukemia cells and inoculating them into wells of a 96-well cell culture plate. The culture medium is the RPMI-1640 cell culture medium containing 10% fetal bovine serum. After adding on the second day the 2-alkyl- or 2-aromatic-substituted tanshinone I derivatives of different concentrations and mixing uniformly, placing the plate in a carbon dioxide cell incubator (5% CO2) at 37° C. and incubated for 72 hours. Then the viable cell concentration is determined by MTT method. In this experiment, the cell viability in control group (not treated with any compound) is set as 100%, and the cell viability (%) after treatment by the compounds and the half maximum inhibitory concentration for the leukemia cell at 72 hours (IC50 value of 72 hours, μg/mL) are calculated.

[2] = system: Kasumi-1 (acute myeloid leukemia M2 type, AML-M2); test: MTT cell growth inhibition, Kasumi-1 leukemia cells, 72 h; format: cell-based; conditions: Homo sapiens, Kasumi-1, 72 h; for IC50: read-out: IC50; for IC90: read-out: IC90
Protocol: as §1, §2

[3] = system: NB4 (acute promyelocytic leukemia, AML); test: MTT cell growth inhibition, NB4 leukemia cells, 72 h; format: cell-based; conditions: NB4, 72 h; for IC50: read-out: IC50; for IC90: read-out: IC90
Protocol: as §1, §2

[4] = system: Jurkat (acute lymphoblastic leukemia, ALL); test: MTT cell growth inhibition, Jurkat leukemia cells, 72 h; format: cell-based; conditions: for IC50 / IC90: Homo sapiens, 72 h; for IC50: read-out: IC50; for IC90: read-out: IC90
Protocol: as §1, §2

[5] = system: H9 (acute lymphoblastic leukemia, ALL); test: MTT cell growth inhibition, H9 leukemia cells, 72 h; format: cell-based; conditions: H9, 72 h; for IC50: read-out: IC50; for IC90: read-out: IC90
Protocol: as §1, §2

[6] = system: RPMI8226 (multiple myeloma); test: MTT cell growth inhibition, RPMI8226 multiple myeloma cells, 72 h; format: cell-based, human; conditions: for IC50 / IC90: Homo sapiens, RPMI 8226, 72 h; for IC50: read-out: IC50; for IC90: read-out: IC90
Protocol: as §1, §2

A549 (human lung cancer) = test: MTT cell growth inhibition, A549 cells, 72 h; format: cell-based; conditions: Homo sapiens, A549, 72 h; for IC50: read-out: IC50; for IC90: read-out: IC90
Protocol: (§3) The standard sample of tanshinone I (TA) and the 2-alkyl- or 2-aromatic-substituted tanshinone I derivatives of the present invention are sufficiently dissolved in dimethylsulfoxide to produce a stock solution of 10 mg/mL, which is refrigerated at 4° C. and stored in dark, and is diluted with a cell culture medium to the desired concentration prior to experimentation.
(§4) Obtaining 6000 well-growing human solid tumor cells and inoculating them into wells of a 96-well cell culture plate. The culture medium is DMEM High Glucose cell culture medium containing 10% fetal bovine serum. The plate is placed in a carbon dioxide cell incubator (5% CO2) at 37° C. and incubated for 24 hours. After adding the 2-alkyl- or 2-aromatic-substituted tanshinone I derivatives of different concentrations and mixing uniformly, the plate is placed in a carbon dioxide cell incubator (5% CO2) at 37° C. and incubated for 72 hours. Then the viable cell concentration is determined by MTT method. In this experiment, the cell viability in control group (not treated with any compound) is set as 100%, and the cell viability (%) after treatment by the compounds and the half maximum inhibitory concentration for the leukemia cell at 72 hours (IC50 value of 72 hours, μg/mL) are calculated.

[7] = system: PANC-1 (pancreatic cancer); test: MTT cell growth inhibition, PANC-1 cells, 72 h; format: cell-based, human; conditions: Homo sapiens, PANC-1, 72 h; for IC50: read-out: IC50; for IC90: read-out: IC90
Protocol: as §3, §4

[8] = system: Becap37 (human breast cancer cell); test: MTT cell growth inhibition, Becap37 cells, 72 h; format: cell-based; conditions: for IC50 / IC90: Homo sapiens, Becap-37, 72 h; for IC50: read-out: IC50; for IC90: read-out: IC90
Protocol: as §3, §4

MG63 (osteosarcoma) = test: MTT cell growth inhibition, MG63 cells, 72 h; format: cell-based, human; conditions: Homo sapiens, MG-63, 72 h; for IC50: read-out: IC50; for IC90: read-out: IC90
Protocol: as §3, §4

[9] = system: Hep G2 (human liver cancer cell); test: MTT cell growth inhibition, Hep G2 cells, 72 h; format: cell-based; conditions: for IC50 / IC90: Homo sapiens, HepG2, Hep G2, 72 h; for IC50: read-out: IC50; for IC90: read-out: IC90
Protocol: as §3, §4

[10] = system: RKO (human colon adenocarcinoma cell); test: MTT cell growth inhibition, RKO cells, 72 h; format: cell-based; conditions: for IC50 / IC90: Homo sapiens, RKO, 72 h; for IC50: read-out: IC50; for IC90: read-out: IC90
Protocol: as §3, §4

[11] = system: U87 MG (malignant glioma cell); test: MTT cell growth inhibition, U87 MG cells, 72 h; format: cell-based, human; conditions: for IC50 / IC90: Homo sapiens, U-87 MG, U87-MG, 72 h; for IC50: read-out: IC50; for IC90: read-out: IC90; for anti-U87 MG activity (in words): Table 2
Protocol: as §3, §4

[12] = system: Hela (human cervical cancer cell); test: MTT cell growth inhibition, Hela cells, 72 h; format: cell-based; conditions: for IC50 / IC90: Homo sapiens, HeLa, 72 h; for IC50: read-out: IC50; for IC90: read-out: IC90
Protocol: as §3, §4

[13] = system: CaES-17 (esophageal cancer cell); test: MTT cell growth inhibition, CaES-17 cells, 72 h; format: cell-based, human; conditions: Homo sapiens, CaEs17, CaEs-17, 72 h; for IC50: read-out: IC50; for IC90: read-out: IC90
Protocol: as §3, §4

[14] = system: CNE (nasopharyngeal carcinoma cell); test: MTT cell growth inhibition, CNE cells, 72 h; format: cell-based, human; conditions: for IC50 / IC90: Homo sapiens, CNE, 72 h; for IC50: read-out: IC50; for IC90: read-out: IC90
Protocol: as §3, §4

[15] = system: Hep-2 (laryngeal carcinoma); test: MTT cell growth inhibition, Hep-2 cells, 72 h; format: cell-based, human; conditions: Homo sapiens, HEp-2, 72 h; for IC50: read-out: IC50; for IC90: read-out: IC90
Protocol: as §3, §4

[16] = system: MGC 803 (human gastric cancer cell); test: MTT cell growth inhibition, MGC 803 cells, 72 h; format: cell-based; conditions: Homo sapiens, MGC-803, 72 h; for IC50: read-out: IC50; for IC90: read-out: IC90
Protocol: as §3, §4

PC-3 (prostate cancer) = test: MTT cell growth inhibition, PC-3 cells, 72 h; format: cell-based, human; conditions: Homo sapiens, PC-3, 72 h; for IC50: read-out: IC50; for IC90: read-out: IC90
Protocol: as §3, §4

[17] = system: SK-OV-3 (ovarian cancer cell); test: MTT cell growth inhibition, SK-OV-3 cells, 72 h; format: cell-based, human; conditions: for IC50 / IC90: Homo sapiens, SK-OV-3, 72 h; for IC50: read-out: IC50; for IC90: read-out: IC90
Protocol: as §3, §4

Cc1c(-c2ccc(OCC(O)CO)cc2)oc2c1C(=O)C(=O)c1c-2ccc2c(C)cccc12 (stereo not drawn) [BS-TA-301]
IC50 [1]: 1.36 µg/mL (≈ 3.07 µM) | IC90 [1]: 7.61 µg/mL (≈ 17.2 µM) | IC50 [2]: 0.97 µg/mL (≈ 2.19 µM) | IC90 [2]: 31.1 µg/mL (≈ 70.3 µM) | IC50 [3]: 0.31 µg/mL (≈ 0.701 µM) | IC90 [3]: 3.22 µg/mL (≈ 7.28 µM) | IC50 [4]: 0.48 µg/mL (≈ 1.08 µM) | IC90 [4]: > 16 µg/mL | improvement of anti-Jurkat activity as compared with tanshinone I per se ([4]; vs tanshinone I): more than 3 fold | IC50 [5]: 3 µg/mL (≈ 6.78 µM) | IC90 [5]: > 16 µg/mL | IC50 [6]: 0.58 µg/mL (≈ 1.31 µM) | IC90 [6]: 16.2 µg/mL (≈ 36.6 µM) | anti-RPMI8226 cell line activity (in words) ([6]; as compared with tanshinone I per se): improves the anti-RPMI8226 cell line activity significantly | IC50 (A549 (human lung cancer)): 6.68 µg/mL (≈ 15.1 µM) | IC90 (A549 (human lung cancer)): 25.9 µg/mL (≈ 58.5 µM) | IC50 [7]: 7.34 µg/mL (≈ 16.6 µM) | IC90 [7]: 24.1 µg/mL (≈ 54.5 µM) | IC50 [8]: 1.99 µg/mL (≈ 4.5 µM) | IC90 [8]: 7.83 µg/mL (≈ 17.7 µM) | anti-Becap37 activity (in words) ([8]; Table 2): superior to that of tanshinone I per se | IC50 (MG63 (osteosarcoma)): 1.62 µg/mL (≈ 3.66 µM) | IC90 (MG63 (osteosarcoma)): 7.44 µg/mL (≈ 16.8 µM) | IC50 [9]: 2.09 µg/mL (≈ 4.72 µM) | IC90 [9]: 16.3 µg/mL (≈ 36.9 µM) | anti-Hep G2 activity (in words) ([9]; Table 2): superior to that of tanshinone I per se | IC50 [10]: 0.87 µg/mL (≈ 1.97 µM) | IC90 [10]: 26.6 µg/mL (≈ 60 µM) | anti-RKO activity (in words) ([10]; Table 2): superior to that of tanshinone I per se | IC50 [11]: 2.85 µg/mL (≈ 6.44 µM) | IC90 [11]: 15.4 µg/mL (≈ 34.9 µM) | anti-U87 MG activity (in words) [11]: superior to that of tanshinone I per se | IC50 [12]: 1.07 µg/mL (≈ 2.42 µM) | IC90 [12]: 24 µg/mL (≈ 54.3 µM) | anti-Hela activity (in words) ([12]; Table 2): superior to that of tanshinone I per se | IC50 [13]: 3.78 µg/mL (≈ 8.54 µM) | IC90 [13]: > 16 µg/mL | IC50 [14]: 3.2 µg/mL (≈ 7.23 µM) | IC90 [14]: 45 µg/mL (≈ 102 µM) | anti-CNE activity (in words) ([14]; Table 2): good antitumor activity | IC50 [15]: 5.27 µg/mL (≈ 11.9 µM) | IC90 [15]: > 16 µg/mL | IC50 [16]: 1.74 µg/mL (≈ 3.93 µM) | IC90 [16]: 16 µg/mL (≈ 36.2 µM) | IC50 (PC-3 (prostate cancer)): 9.94 µg/mL (≈ 22.5 µM) | IC90 (PC-3 (prostate cancer)): > 16 µg/mL | IC50 [17]: 11.7 µg/mL (≈ 26.5 µM) | IC90 [17]: > 16 µg/mL | anti-SK-OV-3 activity (in words) ([17]; Table 2): superior to that of tanshinone I per se

Cc1c(-c2ccccc2Cl)oc2c1C(=O)C(=O)c1c-2ccc2c(C)cccc12 [BS-TA-04]
IC50 [1]: 15.5 µg/mL (≈ 40.1 µM) | IC90 [1]: > 16 µg/mL | IC50 [2]: > 16 µg/mL | IC90 [2]: > 16 µg/mL | IC50 [3]: 4.09 µg/mL (≈ 10.6 µM) | IC90 [3]: 11.2 µg/mL (≈ 29 µM) | IC50 [4]: 4.83 µg/mL (≈ 12.5 µM) | IC90 [4]: 9.72 µg/mL (≈ 25.1 µM) | IC50 [5]: 6.7 µg/mL (≈ 17.3 µM) | IC90 [5]: > 16 µg/mL | IC50 [6]: 4 µg/mL (≈ 10.3 µM) | IC90 [6]: 16.1 µg/mL (≈ 41.5 µM) | IC50 (A549 (human lung cancer)): 6.92 µg/mL (≈ 17.9 µM) | IC90 (A549 (human lung cancer)): > 16 µg/mL | IC50 [7]: 9.8 µg/mL (≈ 25.3 µM) | IC90 [7]: > 16 µg/mL | IC50 [8]: 9.34 µg/mL (≈ 24.1 µM) | IC90 [8]: > 16 µg/mL | IC50 (MG63 (osteosarcoma)): 10.3 µg/mL (≈ 26.7 µM) | IC90 (MG63 (osteosarcoma)): > 16 µg/mL | IC50 [9]: 14.5 µg/mL (≈ 37.4 µM) | IC90 [9]: > 16 µg/mL | IC50 [10]: 5.01 µg/mL (≈ 13 µM) | IC90 [10]: > 16 µg/mL | IC50 [11]: 5.73 µg/mL (≈ 14.8 µM) | IC90 [11]: 19.2 µg/mL (≈ 49.6 µM) | anti-U87 MG activity (in words) [11]: superior to that of tanshinone I per se | IC50 [12]: 5.5 µg/mL (≈ 14.2 µM) | IC90 [12]: 22.2 µg/mL (≈ 57.4 µM) | IC50 [13]: 11 µg/mL (≈ 28.5 µM) | IC90 [13]: 28.8 µg/mL (≈ 74.5 µM) | IC50 [14]: 10.5 µg/mL (≈ 27.1 µM) | IC90 [14]: > 16 µg/mL | IC50 [15]: 11.6 µg/mL (≈ 30.1 µM) | IC90 [15]: > 16 µg/mL | IC50 [16]: 8.88 µg/mL (≈ 23 µM) | IC90 [16]: 23.9 µg/mL (≈ 61.9 µM) | IC50 (PC-3 (prostate cancer)): > 16 µg/mL | IC90 (PC-3 (prostate cancer)): > 16 µg/mL | IC50 [17]: > 16 µg/mL | IC90 [17]: > 16 µg/mL
